Source: publication PMC4051426 (Biochemistry, 2014)

Target: triosephosphate isomerase from chicken muscle (cTIM), loop 6 replacement mutant (L6RM) (Gallus gallus, UniProt P00940, V167P/W168E)
Assay: steady-state kinetics of isomerization
Assay type: biochemical

Chain of triosephosphate isomerase from chicken muscle (cTIM), loop 6 replacement mutant (L6RM) (P00940 2-248 V167P/W168E): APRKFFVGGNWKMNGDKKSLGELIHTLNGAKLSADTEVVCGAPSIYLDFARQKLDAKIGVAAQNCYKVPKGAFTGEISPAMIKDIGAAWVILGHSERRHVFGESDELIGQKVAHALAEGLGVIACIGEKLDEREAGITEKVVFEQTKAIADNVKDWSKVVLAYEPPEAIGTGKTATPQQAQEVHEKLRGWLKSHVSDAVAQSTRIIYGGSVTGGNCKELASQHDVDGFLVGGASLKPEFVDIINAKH

kcat/Km (M^-1 s^-1): 470 M^–1 s^–1 (kcat/Km)
SMILES: O=C[C@H](O)COP(=O)(O)O [GAP, (R)-glyceraldehyde 3-phosphate]
